# From PubChem BioAssay (NCI)
#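 The concentration for 50% growth inhibition is given as GI50. TGI denotes the concentration required for complete inhibition of growth.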
# Key:
# Assay in all cases: DTP human tumour cell line panel, 384-well format
# 786-0 renal = system: 786-0 renal
# A498 renal = system: A498 renal
# ACHN renal = system: ACHN renal
# BT-549 breast = system: BT-549 breast
# CCRF-CEM leukemia = system: CCRF-CEM leukemia
# COLO 205 colon = system: COLO 205 colon
# DU-145 prostate = system: DU-145 prostate
# EKVX NSCLC = system: EKVX NSCLC
# HCC-2998 colon = system: HCC-2998 colon
# HCT-15 colon = system: HCT-15 colon
# HL-60(TB) leukemia = system: HL-60(TB) leukemia
# HOP-62 NSCLC = system: HOP-62 NSCLC
# HS 578T breast = system: HS 578T breast
# HT29 colon = system: HT29 colon
# KM12 colon = system: KM12 colon
# LOX IMVI melanoma = system: LOX IMVI melanoma
# M14 melanoma = system: M14 melanoma
# MALME-3M melanoma = system: MALME-3M melanoma
# MCF7 breast = system: MCF7 breast
# MDA-MB-231 breast = system: MDA-MB-231 breast
# MDA-MB-435 melanoma = system: MDA-MB-435 melanoma
# MOLT-4 leukemia = system: MOLT-4 leukemia
# NCI-H23 lung = system: NCI-H23 lung
# NCI-H322M lung = system: NCI-H322M lung
# NCI-H460 NSCLC = system: NCI-H460 NSCLC
# NCI-H522 lung = system: NCI-H522 lung
# NCI/ADR-RES ovarian = system: NCI/ADR-RES ovarian
# OVCAR-3 ovarian = system: OVCAR-3 ovarian
# OVCAR-4 ovarian = system: OVCAR-4 ovarian
# OVCAR-5 ovarian = system: OVCAR-5 ovarian
# OVCAR-8 ovarian = system: OVCAR-8 ovarian
# PC-3 prostate = system: PC-3 prostate
# RPMI-8226 leukemia = system: RPMI-8226 leukemia
# RXF 393 renal = system: RXF 393 renal
# SF-268 CNS = system: SF-268 CNS
# SF-295 CNS = system: SF-295 CNS
# SF-539 CNS = system: SF-539 CNS
# SK-MEL-2 melanoma = system: SK-MEL-2 melanoma
# SK-MEL-28 melanoma = system: SK-MEL-28 melanoma
# SK-MEL-5 melanoma = system: SK-MEL-5 melanoma
# SK-OV-3 ovarian = system: SK-OV-3 ovarian
# SN12C renal = system: SN12C renal
# SNB-75 CNS = system: SNB-75 CNS
# SW-620 colon = system: SW-620 colon
# T-47D breast = system: T-47D breast
# TK-10 renal = system: TK-10 renal
# U251 glioblastoma = system: U251 glioblastoma
# UACC-257 melanoma = system: UACC-257 melanoma
# UACC-62 melanoma = system: UACC-62 melanoma
compound,measurement,setting,value
C[C@@H](Oc1ccc2[nH]nc(/C=C/c3cnn(CCO)c3)c2c1)c1c(Cl)cncc1Cl,GI50,786-0 renal,0.214 µM
same,TGI,786-0 renal,1.2 µM
same,GI50,A498 renal,0.171 µM
same,TGI,A498 renal,> 100 µM
same,GI50,ACHN renal,0.0858 µM
same,TGI,ACHN renal,> 100 µM
same,GI50,BT-549 breast,0.0612 µM
same,TGI,BT-549 breast,0.229 µM
same,GI50,CCRF-CEM leukemia,0.0255 µM
same,TGI,CCRF-CEM leukemia,0.0605 µM
same,GI50,COLO 205 colon,0.0248 µM
same,TGI,COLO 205 colon,0.105 µM
same,GI50,DU-145 prostate,0.0972 µM
same,TGI,DU-145 prostate,0.755 µM
same,GI50,EKVX NSCLC,0.0368 µM
same,TGI,EKVX NSCLC,0.757 µM
same,GI50,HCC-2998 colon,0.399 µM
same,TGI,HCC-2998 colon,2.12 µM
same,GI50,HCT-15 colon,0.117 µM
same,TGI,HCT-15 colon,1.25 µM
same,GI50,HL-60(TB) leukemia,0.0317 µM
same,TGI,HL-60(TB) leukemia,0.131 µM
same,GI50,HOP-62 NSCLC,0.082 µM
same,TGI,HOP-62 NSCLC,1.08 µM
same,GI50,HS 578T breast,0.0297 µM
same,TGI,HS 578T breast,0.229 µM
same,GI50,HT29 colon,0.278 µM
same,TGI,HT29 colon,> 100 µM
same,GI50,KM12 colon,< 0.01 µM
same,TGI,KM12 colon,0.145 µM
same,GI50,LOX IMVI melanoma,0.07 µM
same,TGI,LOX IMVI melanoma,0.199 µM
same,GI50,M14 melanoma,0.331 µM
same,TGI,M14 melanoma,2.04 µM
same,GI50,MALME-3M melanoma,1.12 µM
same,TGI,MALME-3M melanoma,2.34 µM
same,GI50,MCF7 breast,0.0463 µM
same,TGI,MCF7 breast,1.6 µM
same,GI50,MDA-MB-231 breast,0.161 µM
same,TGI,MDA-MB-231 breast,3.45 µM
same,GI50,MDA-MB-435 melanoma,1.14 µM
same,TGI,MDA-MB-435 melanoma,2.5 µM
same,GI50,MOLT-4 leukemia,0.0195 µM
same,TGI,MOLT-4 leukemia,0.0488 µM
same,GI50,NCI-H23 lung,0.0433 µM
same,TGI,NCI-H23 lung,0.333 µM
same,GI50,NCI-H322M lung,0.331 µM
same,TGI,NCI-H322M lung,2.48 µM
same,GI50,NCI-H460 NSCLC,0.037 µM
same,TGI,NCI-H460 NSCLC,1.09 µM
same,GI50,NCI-H522 lung,0.031 µM
same,TGI,NCI-H522 lung,0.554 µM
same,GI50,NCI/ADR-RES ovarian,0.227 µM
same,TGI,NCI/ADR-RES ovarian,1.41 µM
same,GI50,OVCAR-3 ovarian,0.0745 µM
same,TGI,OVCAR-3 ovarian,1.57 µM
same,GI50,OVCAR-4 ovarian,1.5 µM
same,TGI,OVCAR-4 ovarian,4.75 µM
same,GI50,OVCAR-5 ovarian,0.111 µM
same,TGI,OVCAR-5 ovarian,0.475 µM
same,GI50,OVCAR-8 ovarian,0.174 µM
same,TGI,OVCAR-8 ovarian,1.45 µM
same,GI50,PC-3 prostate,1.28 µM
same,TGI,PC-3 prostate,> 100 µM
same,GI50,RPMI-8226 leukemia,0.0343 µM
same,TGI,RPMI-8226 leukemia,1.33 µM
same,GI50,RXF 393 renal,0.0544 µM
same,TGI,RXF 393 renal,0.23 µM
same,GI50,SF-268 CNS,0.124 µM
same,TGI,SF-268 CNS,0.384 µM
same,GI50,SF-295 CNS,0.0711 µM
same,TGI,SF-295 CNS,2.06 µM
same,GI50,SF-539 CNS,0.0237 µM
same,TGI,SF-539 CNS,0.154 µM
same,GI50,SK-MEL-2 melanoma,0.606 µM
same,TGI,SK-MEL-2 melanoma,2.13 µM
same,GI50,SK-MEL-28 melanoma,1.31 µM
same,TGI,SK-MEL-28 melanoma,2.63 µM
same,GI50,SK-MEL-5 melanoma,0.51 µM
same,TGI,SK-MEL-5 melanoma,1.92 µM
same,GI50,SK-OV-3 ovarian,0.114 µM
same,GI50,SN12C renal,0.0477 µM
same,TGI,SN12C renal,0.343 µM
same,GI50,SNB-75 CNS,0.0234 µM
same,TGI,SNB-75 CNS,0.213 µM
same,GI50,SW-620 colon,0.0605 µM
same,TGI,SW-620 colon,0.469 µM
same,GI50,T-47D breast,0.263 µM
same,TGI,T-47D breast,> 100 µM
same,GI50,TK-10 renal,0.0986 µM
same,TGI,TK-10 renal,0.606 µM
same,GI50,U251 glioblastoma,0.156 µM
same,TGI,U251 glioblastoma,0.766 µM
same,GI50,UACC-257 melanoma,1.15 µM
same,TGI,UACC-257 melanoma,2.53 µM
same,GI50,UACC-62 melanoma,1.29 µM
same,TGI,UACC-62 melanoma,2.59 µM
